Test results reported in patent publication US12637440B2, “Amide derivative useful as diacylglycerol acyltransferase 2 inhibitor, and use thereof” (LG CHEM, LTD., priority 2019, dated 2026).

biological target: T1, Recombinant human DGAT2 protein (Homo sapiens, UniProt Q96PD7); assay: Measurement of inhibitory effect against DGAT2 enzyme activity (SPA, Phospholipid FlashPlate, [14C]-TG production); assay type: biochemical; settings: concentration inhibiting [14C]-labeled triacyl glycerol (TG) production by 50%; 2 μg DGAT2-membrane protein from Sf-21 cells, 37° C.
T1 construct: FLAG (DYKDDDDK); (N); made in house; host or cells: Sf-21 insect cells (BacPAK baculovirus system); used as a membrane preparation
T1 sequence (Q96PD7 1-388): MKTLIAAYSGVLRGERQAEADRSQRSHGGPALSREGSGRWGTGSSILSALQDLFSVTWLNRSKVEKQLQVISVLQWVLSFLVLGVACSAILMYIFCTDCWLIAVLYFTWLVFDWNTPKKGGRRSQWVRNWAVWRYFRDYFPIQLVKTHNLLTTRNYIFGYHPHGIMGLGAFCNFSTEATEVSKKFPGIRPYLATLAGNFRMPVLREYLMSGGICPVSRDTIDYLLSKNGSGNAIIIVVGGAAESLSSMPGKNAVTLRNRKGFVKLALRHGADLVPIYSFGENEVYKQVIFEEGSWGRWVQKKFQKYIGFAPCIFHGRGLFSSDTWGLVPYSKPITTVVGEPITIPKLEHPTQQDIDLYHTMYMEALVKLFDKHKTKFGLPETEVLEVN
Description: Experimental Example: Measurement of Inhibitory Effect Against DGAT2 Enzyme Activity
In order to prepare the pBacPAK9-DGAT2, which is DGAT2 expression vector, the human DGAT2 gene amplified by polymerase chain reaction (PCR) was cloned into the EcoR1 and Xho1 sites of the pBacPAK9 (clonctech) vector. The nucleotide sequence of the primers used in PCR was the forward primer 5′ […] and the reverse primer 5′ […]. The composition of the reaction solution was to contain 50 ng of cDNA clone (OriGene), 200 μM of dATP, dCTP, dTTP, dGTP, 200 nM of each primer, 1 unit of Tag DNA Polymerase (Toyobo), 1×PCR buffer, and the final volume was adjusted to 20 μl. The reaction conditions were denatured at 95° C. for 5 minutes, followed by 30 times of 94° C. for 20 seconds, 60° C. for 20 seconds, and 72° C. for 90 seconds, followed by further reaction at 72° C. for 7 minutes.
Recombinant human DGAT2 protein was expressed in Sf-21 cells, which are insect cells, by using the BacPack baculovirus expression system (Clontech). The brief manufacturing process is as follows. First, the pBacPAK9-DGAT2 expression vector was transfected with BacPAK6 virus DNA (Bsu36I digest) into sf21 cells using Bacfectin to prepare a recombinant DGAT2 expressing baculovirus. The thus prepared baculovirus was infected with Sf-21 cells at 10 MOI (multiplicity of infection), and after 72 hours, infected insect cells were collected and membrane proteins were isolated. For membrane protein separation, the cell pellet was dissolved in a sucrose solution containing 250 mM sucrose, 10 mM Tris (pH 7.4), and 1 mM ethylenediamine-tetraacetic acid (EDTA), and then homogenized by using a dounce homogenizer, and the supernatant was taken by centrifuging at 600×g for 15 minutes, and centrifuged at 100,000×g for 1 hour to discard the supernatant, and the remaining pellet was resuspended in 20 mM HEPES buffer (pH 7.4). The prepared DGAT2 overexpressing membrane protein was dispensed in 100 μl and stored at −80° C. until use. Protein concentration was quantified by using the BCA Protein Assay Kit (Thermo Scientific).
In vitro DGAT2 analysis was performed using a Phospholipid Flash Plate (PerkinElmer) based on the principle of SPA (Scintillation Proximity Assay). First, DGAT2 inhibition compounds serially diluted 5 times from 3 nM to 10 μM (final concentration, 1% DMSO) were mixed in a buffer solution containing 2 μg DGAT2-membrane protein and 20 mM HEPES, 20 mM MgCl2, 1 mg/mL BSA, 50 μM 1,2 sn-oleoyl glycerol (Sigma), put in a 96-well flash plate (FlashPlate) and reacted at 37° C. for 20 minutes, and then 1 μM [14C] ole oil CoA (PerkinElmer, NEC651050UC) was added to be a final volume of 100 μL and further reacted at 37° C. for 15 minutes. After the enzymatic reaction was completed, 100 μL of isopropanol was added, the plate was sealed with a film, and the plate was shaken slowly in a plate shaker. The next day, the amplified scintillation signal (cpm) in Topcounter (Packard) was measured to measure the degree of production of [14C]-labeled triacyl glycerol (TG) as a reaction product. The measured value when the compound was not treated was used as a positive control, and the measured value of the compound treated group was calculated as a relative % to measure the inhibition effect of the compound on TG production.

Row | Structure (SMILES) | IC50 [nM]
1 | CCOc1ccccc1O[C@@H]1CCCN(c2cncc(NC(=O)Cc3ccc(OCc4ccc(C(C)(C)C(=O)O)cc4)cc3)n2)C1 [Example 107, (R)-2-(4-((4-(2-((6-(3-(2-ethoxyphenoxy)piperidin-1-yl)pyrazin-2-yl)amino)-2-oxoethyl)phenoxy)methyl)phenyl)-2-methylpropanoic acid] | 70
2 | CC(C)(C(=O)O)c1ccc(CCC(=O)Nc2cncc(N3CCC[C@@H](Oc4ccccc4OC4CCC4)C3)n2)cc1 [Example 98, (R)-2-(4-(3-((6-(3-(2-cyclobutoxyphenoxy)piperidin-1-yl)pyrazin-2-yl)amino)-3-oxopropyl)phenyl)-2-methylpropanoic acid] | 81
3 | CCOc1ccccc1O[C@@H]1CCCN(c2cncc(NC(=O)CCc3ccccc3)n2)C1 [Example 29, (R)—N-(6-(3-(2-ethoxyphenoxy)piperidin-1-yl)pyrazin-2-yl)-3-phenylpropanamide] | 18
4 | CCOc1ccccc1O[C@@H]1CCCN(c2cncc(NC(=O)c3cccc(-c4cccc(CC(C)(C)C(=O)O)c4)c3)n2)C1 [Example 129, (R)-3-(3′-((6-(3-(2-ethoxyphenoxy)piperidin-1-yl)pyrazin-2-yl)carbamoyl)-[1,1′-biphenyl]-3-yl)-2,2-dimethylpropanoic acid] | 540
5 | CCOc1ccccc1O[C@@H]1CCCN(c2cncc(NC(=O)Cc3ccc(C[C@@H](C)C(=O)O)cc3)n2)C1 [Example 63] | 140
6 | CC(C)(Cc1ccc(CC(=O)Nc2cncc(N3CCC[C@@H](Oc4ccccc4OCCF)C3)n2)cc1)C(=O)O [Example 94, (R)-3-(4-(2-((6-(3-(2-(2-fluoroethoxy)phenoxy)piperidin-1-yl)pyrazin-2-yl)amino)-2-oxoethyl)phenyl)-2,2-dimethylpropanoic acid] | 110
7 | CCOc1ccccc1O[C@@H]1CCCN(c2nccc(NC(=O)CCc3ccc(C(C)(C)C(=O)O)cc3)n2)C1 [Example 122, (R)-2-(4-(3-((2-(3-(2-ethoxyphenoxy)piperidin-1-yl)pyrimidin-4-yl)amino)-3-oxopropyl)phenyl)-2-methylpropanoic acid] | 60
8 | CCOc1ccccc1O[C@@H]1CCCN(c2cncc(NC(=O)Cc3ccc(OCCCC(=O)O)cc3)n2)C1 [Example 37, (R)-4-(4-(2-((6-(3-(2-ethoxyphenoxy)piperidin-1-yl)pyrazin-2-yl)amino)-2-oxoethyl)phenoxy)butanoic acid] | 460
9 | CCOc1ccccc1O[C@@H]1CCCN(c2cncc(NC(=O)Cc3cc(C(F)(F)F)cc(C(F)(F)F)c3)n2)C1 [Example 27, (R)-2-(3,5-bis(trifluoromethyl)phenyl)-N-(6-(3-(2-ethoxyphenoxy)piperidin-1-yl)pyrazin-2-yl)acetamide] | 49
10 | CCOc1ccccc1O[C@@H]1CCCN(c2nccc(NC(=O)Cc3ccc(OC(C)(C)C(=O)O)cc3)n2)C1 [Example 106, (R)-2-(4-(2-((2-(3-(2-ethoxyphenoxy)piperidin-1-yl)pyrimidin-4-yl)amino)-2-oxoethyl)phenoxy)-2-methylpropanoic acid] | 730
11 | CC(C)(Cc1ccc(CC(=O)Nc2cncc(N3CCC[C@@H](Oc4ccccc4OC4CC4)C3)n2)cc1)C(=O)O [Example 95, (R)-3-(4-(2-((6-(3-(2-cyclopropoxyphenoxy)piperidin-1-yl)pyrazin-2-yl)amino)-2-oxoethyl)phenyl)-2,2-dimethylpropanoic acid] | 150
12 | CCOc1ccccc1O[C@@H]1CCCN(c2cncc(NC(=O)CCc3ccc(OC(C)(C)C(=O)O)cc3)n2)C1 [Example 60, (R)-2-(4-(3-((6-(3-(2-ethoxyphenoxy)piperidin-1-yl)pyrazin-2-yl)amino)-3-oxopropyl)phenoxy)-2-methylpropanoic acid] | 420
13 | CCOc1ccccc1O[C@@H]1CCCN(c2cncc(NC(=O)/C(C)=C/c3ccc(C(=O)O)cc3)n2)C1 [Example 42, (R,E)-4-(3-((6-(3-(2-ethoxyphenoxy)piperidin-1-yl)pyrazin-2-yl)amino)-2-methyl-3-oxoprop-1-en-1-yl)benzoic acid] | 1300
14 | CCOc1ccccc1O[C@@H]1CCCN(c2ccnc(NC(=O)C(C)(C)c3ccc(CC(C)(C)C(=O)O)cc3)n2)C1 [Example 77, (R)-3-(4-(1-((4-(3-(2-ethoxyphenoxy)piperidin-1-yl)pyrimidin-2-yl)amino)-2-methyl-1-oxopropan-2-yl)phenyl)-2,2-dimethylpropanoic acid] | 410

Second part, the molecule after the results:

Row | IC50 [nM] | Structure (SMILES)
15 | 1200 | CCOc1ccccc1O[C@@H]1CCCN(c2cncc(NC(=O)C3CCN(c4ncc(C(=O)O)cn4)CC3)n2)C1 [Example 75, (R)-2-(4-((6-(3-(2-ethoxyphenoxy)piperidin-1-yl)pyrazin-2-yl)carbamoyl)piperidin-1-yl)pyrimidine-5-carboxylic acid]
16 | 1300 | CCOc1ccccc1O[C@@H]1CCCN(c2cncc(NC(=O)CC(C)(C)C(=O)O)n2)C1 [Example 22, (R)-4-((6-(3-(2-ethoxyphenoxy)piperidin-1-yl)pyrazin-2-yl)amino)-2,2-dimethyl-4-oxobutanoic acid]
17 | 370 | COc1ccccc1O[C@@H]1CCCN(c2cncc(NC(=O)CCc3ccc(C(C)(C)C(=O)O)cc3)n2)C1 [Example 91, (R)-2-(4-(3-((6-(3-(2-methoxyphenoxy)piperidin-1-yl)pyrazin-2-yl)amino)-3-oxopropyl)phenyl)-2-methylpropanoic acid]
18 | 51000 | CCOc1ccccc1O[C@@H]1CCCN(c2cncc(NC(=O)N3CCC(C(=O)O)C3)n2)C1 (stereo partly drawn) [Example 5, 1-((6-((R)-3-(2-ethoxyphenoxy)piperidin-1-yl)pyrazin-2-yl)carbamoyl)pyrrolidine-3-carboxylic acid]
19 | 740 | CCOc1ccccc1O[C@@H]1CCCN(c2cncc(NC(=O)C3CCN(c4ccc(C(C)(C)C(=O)O)cn4)CC3)n2)C1 [Example 81, (R)-2-(6-(4-((6-(3-(2-ethoxyphenoxy)piperidin-1-yl)pyrazin-2-yl)carbamoyl)piperidin-1-yl)pyridin-3-yl)-2-methylpropanoic acid]
20 | 35 | CCOc1cccnc1O[C@@H]1CCCN(c2cncc(NC(=O)CCc3ccc(C(C)(C)C(=O)O)cc3)n2)C1 [Example 123, (R)-2-(4-(3-((6-(3-((3-ethoxypyridin-2-yl)oxy)piperidin-1-yl)pyrazin-2-yl)amino)-3-oxopropyl)phenyl)-2-methylpropanoic acid]
21 | 5300 | CCOc1ccccc1O[C@@H]1CCCN(c2cncc(NC(=O)c3cc(F)c(N4CCC(C(=O)O)CC4)c(F)c3)n2)C1 [Example 57]
22 | 33 | CCOc1ccccc1O[C@@H]1CCCN(c2cncc(NC(=O)CCc3ccc(C(C)(C)C(=O)O)cc3)n2)C1 [Example 51, (R)-2-(4-(3-((6-(3-(2-ethoxyphenoxy)piperidin-1-yl)pyrazin-2-yl)amino)-3-oxopropyl)phenyl)-2-methylpropanoic acid]
23 | 930 | CCOc1ccccc1O[C@@H]1CCCN(c2cncc(NC(=O)C3CCN(c4ccc(CC(=O)O)cc4)CC3)n2)C1 [Example 79, (R)-2-(4-(4-((6-(3-(2-ethoxyphenoxy)piperidin-1-yl)pyrazin-2-yl)carbamoyl)piperidin-1-yl)phenyl)acetic acid]
